{"source": "patent US4960769A", "about": "“5,6,7,8-tetrahydro-4H-isoxazolo[4,5-c]-azepine derivatives” (H. Lundbeck A/S, priority 1987, dated 1990)", "key": {"[1]": {"target": "T1, central muscarinic M-1 receptors (Rattus norvegicus, UniProt P08482)", "T1 sequence (P08482 1-460)": "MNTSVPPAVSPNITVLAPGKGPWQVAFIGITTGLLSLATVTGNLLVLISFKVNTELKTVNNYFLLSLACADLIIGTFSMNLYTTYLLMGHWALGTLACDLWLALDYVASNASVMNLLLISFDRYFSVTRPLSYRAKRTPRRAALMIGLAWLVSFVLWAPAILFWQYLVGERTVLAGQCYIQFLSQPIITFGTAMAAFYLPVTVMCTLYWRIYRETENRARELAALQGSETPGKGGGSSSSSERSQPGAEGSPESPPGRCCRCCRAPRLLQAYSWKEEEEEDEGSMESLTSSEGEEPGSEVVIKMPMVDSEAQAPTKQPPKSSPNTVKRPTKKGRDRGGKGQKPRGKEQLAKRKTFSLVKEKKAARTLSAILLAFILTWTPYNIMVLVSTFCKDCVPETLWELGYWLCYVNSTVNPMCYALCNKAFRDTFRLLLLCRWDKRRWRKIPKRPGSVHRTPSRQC", "assay": "biochemical", "details": "rat brain homogenate, 1.0 nM 3H-pirenzepine, 60 min at 25 °C; read-out: Binding IC50, 3H-Pirenzepine", "procedure": "^3 H-pirenzepine binding was performed essentially as described by Watson et al., 1983, the conditions being very much the same as for ^3 H-oxotremorine binding, except that aliquots were incubated with 1.0 nM ^3 H-pirenzepine for 60 min. at 25° C. and that the reaction was stopped by direct filtration followed by 3 washes with 4 ml buffer."}, "[2]": {"target": "central cholinergic receptors", "assay": "3H-oxotremorine M binding, rat brain homogenates", "details": "rat brain homogenate, pH 7.4, 40 min at 30 °C; read-out: Binding IC50, 3H-Oxo-M", "experimental": "Briefly, rat brains were homogenized in 100 vol (w/v) 10 mM Na,K-phosphate buffer (pH 7.4) and aliquots incubated with ^3 H-oxotremorine M (84.9 Ci/mmol, NEN) alone or in the presence of test compound in a total volume of 1.5 ml for 40 min. at 30° C. The reaction was stopped by adding 5 ml ice-cold buffer and filtered through Whatman GF/B filters soaked previously in 0.1% polyethylenimin (Sigma) for minimum 30 min. The filters were washed once with the same volume of buffer, transferred to scintillation vials and extracted in scintillation fluid (Pico-fluor 15, Packard) for at least two hours before counted in a liquid scintillation spectrometer (Beckman LS 1800). Non-specific binding was estimated at 10 μM atropine and all estimations made in triplicate. At least two displacement curves were made for each compound tested."}, "[3]": {"details": "cited from earlier work"}, "[4]": {"details": "cited from earlier work", "remark": "listed apart in the source"}, "[5]": {"details": "after peripheral administration; cited from earlier work"}}, "note": "Structures can show the parent of a compound that is named as a salt. Where two headings read alike, the source gives them in different places."}
{"smiles": "COc1noc2c1CNCCC2", "note": "[Example 5, 3-Methoxy-5,6,7,8-tetrahydro-4H-isoxazolo[4,5-c]azepine Hydrochloride]", "values": [{"measurement": "IC50", "setting": "[1]", "result": 248, "unit": "nM"}, {"measurement": "IC50", "setting": "[2]", "result": 2.8, "unit": "nM"}]}
{"smiles": "CC(=O)OCC[N+](C)(C)C", "note": "[AcCh, acetylcholine]", "values": [{"measurement": "penetration of the blood-brain barrier", "setting": "[3]; in vivo", "result": "do not penetrate the blood-brain barrier (BBB) easily"}]}
{"smiles": "COc1noc2c1CNCC2", "note": "[O-Methyl-THPO, reference compound]", "values": [{"measurement": "IC50", "setting": "[1]", "result": 8600, "unit": "nM"}, {"measurement": "IC50", "setting": "[2]", "result": 62, "unit": "nM"}]}
{"smiles": "C#CCOc1noc2c1CNCCC2C", "note": "(centres unmarked) [Example 14, 8-Methyl-3-(2-propynyloxy)-5,6,7,8-tetrahydro-4H-isoxazolo 4,5-c azepine, Fumarate]", "values": [{"measurement": "IC50", "setting": "[1]", "result": 16, "unit": "nM"}, {"measurement": "IC50", "setting": "[2]", "result": 0.93, "unit": "nM"}]}
{"smiles": "C#CCOc1noc2c1CNCCC2", "note": "[Example 9, 3-(2-Propynyloxy)-5,6,7,8-tetrahydro-4H-isoxazolo [4,5-c]azepine Hydrochloride]", "values": [{"measurement": "IC50", "setting": "[1]", "result": 16, "unit": "nM"}, {"measurement": "IC50", "setting": "[2]", "result": 0.34, "unit": "nM"}]}
{"smiles": "CC(C)Oc1noc2c1CNCCC2", "note": "[Example 6, 3-Isopropoxy-5,6,7,8-tetrahydro-4H-isoxazolo[4,5-c]azepine Hydrochloride]", "values": [{"measurement": "IC50", "setting": "[1]", "result": 5, "unit": "nM"}, {"measurement": "IC50", "setting": "[2]", "result": 8.3, "unit": "nM"}]}
{"smiles": "COC(=O)C1=CCCN(C)C1", "note": "[Arecoline, methyl 1-methyl-1,2,5,6-tetrahydropyridine-3-carboxylate]", "values": [{"measurement": "IC50", "setting": "[2]", "result": 1.9, "unit": "nM"}, {"measurement": "penetration of the blood-brain barrier", "setting": "[3]; after peripheral administration", "result": "capable of penetrating the BBB after peripheral administration"}, {"measurement": "hydrolysis of the ester group in vivo", "setting": "[4]", "result": "very rapidly hydrolyzed in vivo"}, {"measurement": "central effects", "setting": "[5]", "result": "very weak and frequently negligible central effects"}]}
{"smiles": "CCOc1noc2c1CNCCC2", "note": "[Example 4, 3-Ethoxy-5,6,7,8-tetrahydro-4H-isoxazolo[4,5-c]azepine Hydrochloride]", "values": [{"measurement": "IC50", "setting": "[1]", "result": 11, "unit": "nM"}, {"measurement": "IC50", "setting": "[2]", "result": 0.49, "unit": "nM"}]}
